Where a name gives a salt, the structure may show the parent alone.
target: T1, His6-AspH315–758 (human aspartate/asparagine-β-hydroxylase, AspH) (Homo sapiens, UniProt Q12797); experiment: SPE-MS AspH inhibition assay (LOPAC screen at fixed 20 μM and IC50 dose-response), hydroxylation of cyclic peptide hFX-CP101–119; assay type: biochemical; details: not given
T1 construct: N-Terminally His6-tagged human AspH315–758 (His6-AspH315–758) was produced in E. coli BL21 (DE3) cells; made in house; host or cells: E. coli BL21 (DE3), pET-28a(+) vector
T1 sequence (Q12797 315-758): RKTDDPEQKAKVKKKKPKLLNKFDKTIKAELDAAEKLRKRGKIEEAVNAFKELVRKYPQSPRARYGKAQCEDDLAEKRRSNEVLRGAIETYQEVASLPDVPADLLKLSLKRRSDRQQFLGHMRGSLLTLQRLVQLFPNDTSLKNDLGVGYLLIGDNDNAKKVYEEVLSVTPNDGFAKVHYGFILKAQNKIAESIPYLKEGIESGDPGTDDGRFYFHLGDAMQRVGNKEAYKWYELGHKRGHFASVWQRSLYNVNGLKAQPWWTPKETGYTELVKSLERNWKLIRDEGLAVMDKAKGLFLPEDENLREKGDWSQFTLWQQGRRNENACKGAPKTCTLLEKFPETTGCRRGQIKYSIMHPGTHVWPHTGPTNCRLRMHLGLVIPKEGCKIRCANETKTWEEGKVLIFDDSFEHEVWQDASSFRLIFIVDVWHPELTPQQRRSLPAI

Compound | % conversion [%] | inhibition at 20 µM [%] | Plate 1 (% conversion) [%] | Plate 1 (% inhibition) [%] | Plate 3 (% conversion) [%] | Plate 2 (% conversion) [%]
N[C@@H]1C[C@H]1c1ccccc1 [Tranylcypromine hydrochloride] | 34.80 | – | – | – | – | –
CN1CCN(CCCN2c3ccccc3Sc3ccc(C(F)(F)F)cc32)CC1 [Trifluoperazine dihydrochloride] | – | -68.5 | – | – | – | –
CN(C)CCCN1c2ccccc2Sc2ccc(C(F)(F)F)cc21 [Triflupromazine hydrochloride] | – | -23.1 | – | – | – | –
NCCc1c[nH]c2ccccc12 [Tryptamine hydrochloride] | – | – | 34.54 | 3.95 | – | –
N#C/C(=C\c1ccc(O)c(O)c1)C(N)=S [Tyrphostin 47, reference compound] | 2.14 | 101 | – | – | – | –
COc1ccc2c(c1)CC[C@@H]1[C@@H]2CC[C@]2(C)[C@@H](NCCCCCCN3C(=O)CCC3=O)CC[C@@H]12 [U-73343] | – | – | – | – | 43.26 | –
C[C@]12C=CC(=O)C=C1CC[C@@H]1C2=CC[C@]2(C)[C@@H](C(=O)CN3CCN(c4cc(N5CCCC5)nc(N5CCCC5)n4)CC3)CC[C@@H]12.O=C(O)/C=C\C(=O)O [U-74389G maleate] | 25.11 | – | – | – | – | –
Brc1c(NC2=NCCN2)ccc2nccnc12 [UK 14,304] | 39.75 | – | – | – | – | –
COc1ccccc1N1CCN(CCCNc2c(C)c(=O)n(C)c(=O)n2C)CC1 [Urapidil, 5-Methyl-] | 36.82 | – | – | – | – | –
C[C@H](N)CN1CCc2ccc(Br)cc21.C[C@H](N)CN1CCc2ccc(Br)cc21.O=C(O)/C=C/C(=O)O [VER-3323 hemifumarate salt] | – | – | – | – | 21.58 | –
COc1ccc(C(CN(C)C)C2(O)CCCCC2)cc1 (stereo not shown) [Venlafaxine hydrochloride] | – | – | – | – | – | 36.45

same assay, conditions: 20 µM

Compound | % inhibition [%]
Brc1c(NC2=NCCN2)ccc2nccnc12 [UK 14,304] | -9.62

same assay, conditions: AspH activity; fixed compound concentration 20 μM; initial LOPAC screen; 0.5%v/v DMSO; read-out: Inhibition at 20 µM [%]

Compound | inhibition at 20 µM [%]
N#CC(C#N)=Cc1ccc(O)c(O)c1 [Tyrphostin 23, reference compound] | 98.7
N#CC(C#N)=C(N)/C(C#N)=C/c1cc(O)c(O)c(O)c1 [Tyrphostin 51, reference compound] | 101

same assay, conditions: LOPAC Plate 4, compound at 20 uM

Compound | % inhibition [%]
Cc1ccc(/C(=C\CN2CCCC2)c2ccccn2)cc1.Cl [Triprolidine hydrochloride] | -7.68
N#CC(C#N)=C(N)/C(C#N)=C/c1ccc(O)cc1 [Tyrphostin AG 112] | -1.91
N#CC(=C(/N)Sc1ccccc1N)/C(C#N)=C(/N)Sc1ccccc1N [U0126] | -0.28
C[C@]12C=CC(=O)C=C1CC[C@@H]1C2=CC[C@]2(C)[C@@H](C(=O)CN3CCN(c4cc(N5CCCC5)nc(N5CCCC5)n4)CC3)CC[C@@H]12.O=C(O)/C=C\C(=O)O [U-74389G maleate] | 33.28
CCCN(CCC)C1Cc2cc(OC)c(OC)cc2C1.O=C(O)/C=C\C(=O)O [U-99194A maleate] | 4.59
O=c1ccn([C@@H]2O[C@H](COP(=O)([O-])OP(=O)([O-])O)[C@@H](O)[C@H]2O)c(=O)[nH]1.[Na+].[Na+] [Uridine 5-diphosphate sodium] | -0.23

same assay, conditions: LOPAC Plate 4, compound at 20 uM, substrate conversion

Compound | % conversion [%]
COc1ccc(/C=C/C(=O)Nc2ccccc2C(=O)O)cc1OC [Tranilast] | 35.26
O=c1n(CCCN2CCN(c3cccc(Cl)c3)CC2)nc2ccccn12 [Trazodone hydrochloride] | 39.67
COc1cc2c(cc1OC)-c1c/c(=N\c3c(C)cc(C)cc3C)n(C)c(=O)n1CC2 [Trequinsin hydrochloride] | 28.50
C[C@]12C=CC(=O)C=C1CC[C@H]1[C@@H]3C[C@@H](O)[C@](O)(C(=O)CO)[C@@]3(C)C[C@H](O)[C@@]12F [Triamcinolone] | 30.89
Nc1nc(N)c2nc(-c3ccccc3)c(N)nc2n1 [Triamterene] | 36.11
O=C(CCCN1CCC(O)(c2cccc(C(F)(F)F)c2)CC1)c1ccc(F)cc1 [Trifluperidol hydrochloride] | 30.59
CC(=O)Oc1cc(C(F)(F)F)ccc1C(=O)O [Triflusal] | 27.02
OC(CCN1CCCCC1)(c1ccccc1)C1CCCCC1 (stereo not shown) [Trihexyphenidyl hydrochloride] | 39.76
COc1cc(Cc2cnc(N)nc2N)cc(OC)c1OC [Trimethoprim] | 37.33
CC(CN(C)C)CN1c2ccccc2CCc2ccccc21 (stereo not shown) [Trimipramine maleate] | 41.64
Cc1ccc(/C(=C\CN2CCCC2)c2ccccn2)cc1.Cl [Triprolidine hydrochloride] | 39.09
CC(C)(C)NCC(O)c1ccccc1Cl (stereo not shown) [Tulobuterol hydrochloride] | 41.18
N#CC(C#N)=Cc1ccc(O)c(O)c1 [Tyrphostin 23, reference compound] | 2.79
N#CC(C#N)=C(N)/C(C#N)=C/c1cc(O)c(O)c(O)c1 [Tyrphostin 51, reference compound] | 2.15
N#CC(C#N)=C(N)/C(C#N)=C/c1ccc(O)cc1 [Tyrphostin AG 112] | 37.12
N#C/C(=C\c1ccc(O)c(O)c1)C(=O)c1ccc(O)c(O)c1 [Tyrphostin AG 538] | 29.27
CC(C)(C)c1cc(/C=C(\C#N)C(N)=S)cc(C(C)(C)C)c1O [Tyrphostin AG 879] | 26.24
COc1cc2ncnc(Nc3cccc(Cl)c3)c2cc1OC [Tyrphostin AG 1478] | 38.87
N#CC(=C(/N)Sc1ccccc1N)/C(C#N)=C(/N)Sc1ccccc1N [U0126] | 36.57
CCCN(CCC)C1Cc2cc(OC)c(OC)cc2C1.O=C(O)/C=C\C(=O)O [U-99194A maleate] | 34.90
CC(C)Oc1cccnc1N(C)C1CCN(Cc2ccccc2)CC1.O=C(O)/C=C\C(=O)O [U-101958 maleate] | 35.76
COc1ccccc1N1CCN(CCCNc2cc(=O)n(C)c(=O)n2C)CC1 [Urapidil hydrochloride] | 27.32
O=c1ccn([C@@H]2O[C@H](COP(=O)([O-])OP(=O)([O-])O)[C@@H](O)[C@H]2O)c(=O)[nH]1.[Na+].[Na+] [Uridine 5-diphosphate sodium] | 36.55

same assay, conditions: LOPAC Plate 4, compound at 20 uM; read-out: % inhibition

Compound | inhibition at 20 µM [%]
O=c1n(CCCN2CCN(c3cccc(Cl)c3)CC2)nc2ccccn12 [Trazodone hydrochloride] | -9.38
OC(CCN1CCCCC1)(c1ccccc1)C1CCCCC1 (stereo not shown) [Trihexyphenidyl hydrochloride] | -9.65
CC(CN(C)C)CN1c2ccccc2CCc2ccccc21 (stereo not shown) [Trimipramine maleate] | -15.1
CC(C)(C)NCC(O)c1ccccc1Cl (stereo not shown) [Tulobuterol hydrochloride] | -13.8
N#CC(C#N)=Cc1ccc(O)c(O)c1 [Tyrphostin 23, reference compound] | 98.7
N#CC(C#N)=C(N)/C(C#N)=C/c1cc(O)c(O)c(O)c1 [Tyrphostin 51, reference compound] | 101
COc1cc2ncnc(Nc3cccc(Cl)c3)c2cc1OC [Tyrphostin AG 1478] | -7.04

same assay, conditions: LOPAC compound at 20uM, plate 2; conversion of substrate peptide

Compound | Plate 2 (% conversion) [%]
CC(C)C(N)C(=O)OCC(CO)OCn1cnc2c(=O)[nH]c(N)nc21.Cl.O (stereo not shown) [Valganciclovir hydrochloride hydrate] | 38.77
CCN(CC)C(=O)c1ccc(O)c(OC)c1 [Vanillic acid diethylamide] | 35.22

same assay, conditions: LOPAC compound at 20uM, plate 2; normalised to DMSO and 2,4-PDCA controls

Compound | Plate 2 (% inhibition) [%]
CC(C)C(N)C(=O)OCC(CO)OCn1cnc2c(=O)[nH]c(N)nc21.Cl.O (stereo not shown) [Valganciclovir hydrochloride hydrate] | -8.41
CCN(CC)C(=O)c1ccc(O)c(OC)c1 [Vanillic acid diethylamide] | 2.19

same assay, conditions: LOPAC compound at 20uM, plate 3; conversion of substrate peptide

Compound | Plate 3 (% conversion) [%]
CC[C@@]1(O)C(=O)OCc2c1cc1n(c2=O)Cc2cc3c(CN(C)C)c(O)ccc3nc2-1.Cl.O [Topotecan hydrochloride hydrate] | 37.14
CCOC(=O)[C@H](CCc1ccccc1)N[C@@H](C)C(=O)N1[C@H](C(=O)O)C[C@H]2CCCC[C@@H]21 [Trandolapril] | 36.50
CCCC(CCC)C(=O)O [Valproic acid sodium] | 37.52

same assay, conditions: LOPAC compound at fixed 20 uM; plate 1, normalised to DMSO and 2,4-PDCA controls

Compound | Plate 1 (% inhibition) [%]
N[C@@H]1[C@H]2CN(c3nc4c(cc3F)c(=O)c(C(=O)O)cn4-c3ccc(F)cc3F)C[C@@H]12 [Trovafloxacin mesylate] | -24.51
O=C(O)C(O)C(O)C(=O)O.c1cnc2cc3c(cc2n1)[C@@H]1CNC[C@H]3C1 [Varenicline tartrate] | 66.93

same assay, conditions: LOPAC compound at fixed 20 uM; substrate conversion, plate 1

Compound | Plate 1 (% conversion) [%]
N[C@@H]1[C@H]2CN(c3nc4c(cc3F)c(=O)c(C(=O)O)cn4-c3ccc(F)cc3F)C[C@@H]12 [Trovafloxacin mesylate] | 44.10
O=C(O)C(O)C(O)C(=O)O.c1cnc2cc3c(cc2n1)[C@@H]1CNC[C@H]3C1 [Varenicline tartrate] | 13.40

same assay, conditions: plate 5 (Pfitzer), test compounds at fixed 20 μM

Compound | Plate 5 (% inhibition) [%]
CCOC(=O)N1c2ccc(C(F)(F)F)cc2[C@@H](N(Cc2cc(C(F)(F)F)cc(C(F)(F)F)c2)C(=O)OC)C[C@H]1CC [Torcetrapib] | 13.93
N[C@@H]1[C@H]2CN(c3nc4c(cc3F)c(=O)c(C(=O)O)cn4-c3ccc(F)cc3F)C[C@@H]12 [Trovafloxacin] | -0.64
N#C/C(=C\c1cn(-c2ccccc2)c2ccccc12)C(=O)O [UK-5099] | 37.56
Cc1cc(CCC[C@H](CC(=O)NO)C(=O)N[C@H](C(=O)N[C@H](C)c2ccccc2)C(C)(C)C)ccc1-c1ccccc1 [UK-356618] | 84.86
NC(=O)c1noc([C@H](CCCC2CCCCC2)CC(=O)NO)n1 [UK-383367] | 50.83
Cc1onc(-c2ccccc2)c1-c1ccc(S(N)(=O)=O)cc1 [Valdecoxib] | 27.98
c1cnc2cc3c(cc2n1)[C@@H]1CNC[C@H]3C1 [Varenicline] | 75.86

same assay, conditions: plate 5 (Pfitzer), test compounds at fixed 20 μM; mean conversion DMSO 32.88

Compound | Plate 5 (% conversion) [%]
CCOC(=O)N1c2ccc(C(F)(F)F)cc2[C@@H](N(Cc2cc(C(F)(F)F)cc(C(F)(F)F)c2)C(=O)OC)C[C@H]1CC [Torcetrapib] | 31.57
N[C@@H]1[C@H]2CN(c3nc4c(cc3F)c(=O)c(C(=O)O)cn4-c3ccc(F)cc3F)C[C@@H]12 [Trovafloxacin] | 36.53
N#C/C(=C\c1cn(-c2ccccc2)c2ccccc12)C(=O)O [UK-5099] | 23.53
Cc1cc(CCC[C@H](CC(=O)NO)C(=O)N[C@H](C(=O)N[C@H](C)c2ccccc2)C(C)(C)C)ccc1-c1ccccc1 [UK-356618] | 7.43
NC(=O)c1noc([C@H](CCCC2CCCCC2)CC(=O)NO)n1 [UK-383367] | 19.02
Cc1onc(-c2ccccc2)c1-c1ccc(S(N)(=O)=O)cc1 [Valdecoxib] | 26.79
c1cnc2cc3c(cc2n1)[C@@H]1CNC[C@H]3C1 [Varenicline] | 10.50

same assay, conditions: read-out: Inhibition at 20 µM [%]

Compound | inhibition at 20 µM [%]
N#C/C(=C\c1ccc(O)c(O)c1)C(N)=S [Tyrphostin 47, reference compound] | 101

same assay, conditions: read-out: Plate 2 (% inhibition)

Compound | inhibition at 20 µM [%]
COc1ccc(C(CN(C)C)C2(O)CCCCC2)cc1 (stereo not shown) [Venlafaxine hydrochloride] | -1.48
